PMC9072656, “Inhibition of Human Sulfotransferases by Phthalate Monoesters” (Frontiers in Endocrinology, 2022)
pIC50, pKi: −log10 of the molar value.

Key:
Type in all cases: biochemical
SULT1B1 [1] = molecular target: T1, SULT1B1 (Homo sapiens, UniProt O43704); test: inhibition of 4-nitrophenol sulfation, UPLC-UV
T1 construct: recombinant, purchased from BD Gentest
Excerpt: inhibition of 4-nitrophenol sulfation, UPLC-UV on SULT1B1

SULT1A1 = molecular target: T2, SULT1A1 (Homo sapiens, UniProt P50225); test: inhibition of 4-nitrophenol sulfation, UPLC-UV
T2 construct: recombinant, purchased from BD Gentest
T2 sequence (P50225 whole entry): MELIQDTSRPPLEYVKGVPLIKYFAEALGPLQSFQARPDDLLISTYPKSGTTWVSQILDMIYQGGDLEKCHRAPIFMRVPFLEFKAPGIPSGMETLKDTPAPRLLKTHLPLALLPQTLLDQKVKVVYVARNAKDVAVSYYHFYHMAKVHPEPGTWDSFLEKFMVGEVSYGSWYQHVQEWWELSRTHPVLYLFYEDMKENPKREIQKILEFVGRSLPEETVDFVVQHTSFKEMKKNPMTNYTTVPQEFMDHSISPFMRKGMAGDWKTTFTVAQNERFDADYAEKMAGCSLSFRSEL
Excerpt: inhibition of 4-nitrophenol sulfation, UPLC-UV on SULT1A1

SULT1E1 [2] = molecular target: T3, SULT1E1 (Homo sapiens, UniProt P49888); test: inhibition of 4-nitrophenol sulfation, UPLC-UV
T3 construct: recombinant, purchased from BD Gentest
T3 sequence (P49888 1-294): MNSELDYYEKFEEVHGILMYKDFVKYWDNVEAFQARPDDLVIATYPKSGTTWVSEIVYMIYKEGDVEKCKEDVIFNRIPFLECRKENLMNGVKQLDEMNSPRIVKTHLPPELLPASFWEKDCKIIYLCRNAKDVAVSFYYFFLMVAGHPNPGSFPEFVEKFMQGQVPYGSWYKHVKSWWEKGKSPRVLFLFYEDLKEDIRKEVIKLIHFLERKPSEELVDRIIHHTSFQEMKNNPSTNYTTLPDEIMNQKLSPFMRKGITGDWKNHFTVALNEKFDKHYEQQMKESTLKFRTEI
Excerpt: inhibition of 4-nitrophenol sulfation, UPLC-UV on SULT1E1

SULT1B1 [3] = molecular target: T1, SULT1B1; test: inhibition of 4-nitrophenol sulfation, UPLC-UV, Lineweaver-Burk slope replot
SULT1E1 [4] = molecular target: T3, SULT1E1; test: as above

T1 sequence (O43704 whole entry): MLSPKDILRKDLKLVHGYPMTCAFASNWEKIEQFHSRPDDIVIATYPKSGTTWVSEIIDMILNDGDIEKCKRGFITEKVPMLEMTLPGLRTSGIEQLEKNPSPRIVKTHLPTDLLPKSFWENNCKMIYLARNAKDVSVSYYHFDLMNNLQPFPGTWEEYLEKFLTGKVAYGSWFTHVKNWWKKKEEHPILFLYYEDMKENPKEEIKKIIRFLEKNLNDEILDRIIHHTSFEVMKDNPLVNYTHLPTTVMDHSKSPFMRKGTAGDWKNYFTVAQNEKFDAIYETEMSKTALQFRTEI

| SMILES | pIC50 (SULT1B1 [1]) | pIC50 (SULT1A1) | pIC50 (SULT1E1 [2]) | pKi (SULT1B1 [3]) | pKi (SULT1E1 [4]) |
| --- | --- | --- | --- | --- | --- |
| CCCCOC(=O)c1ccccc1C(=O)O [MBP] | 5.07 |  |  |  |  |
| O=C(O)c1ccccc1C(=O)OC1CCCCC1 [MCHP] | 4.89 |  |  |  |  |
| O=C(O)c1ccccc1C(=O)OCc1ccccc1 [MBZP] |  | 6.60 |  |  |  |
| CCCCCCOC(=O)c1ccccc1C(=O)O [MHP] | 4.94 | 4.77 | 5.34 |  |  |
| CCCCCCCCOC(=O)c1ccccc1C(=O)O [MOP] | 5.56 | 5.25 | 5.75 | 5.65 | 5.26 |
| CCCCC(CC)COC(=O)c1ccccc1C(=O)O (centres unmarked) [MEHP] | 4.86 | 5.63 | 5.76 |  |  |
